Measured values taken from paper PMC7880690, “Chemical genetics and proteome-wide site mapping reveal cysteine MARylation by PARP-7 on immune-relevant protein targets” (eLife, 2021).

Key:
PARP-7 = target: T1, PARP-7 (Homo sapiens, UniProt Q7Z3E1); conditions: 1 μM, HEK 293 T cells
T1 sequence (Q7Z3E1 1-657): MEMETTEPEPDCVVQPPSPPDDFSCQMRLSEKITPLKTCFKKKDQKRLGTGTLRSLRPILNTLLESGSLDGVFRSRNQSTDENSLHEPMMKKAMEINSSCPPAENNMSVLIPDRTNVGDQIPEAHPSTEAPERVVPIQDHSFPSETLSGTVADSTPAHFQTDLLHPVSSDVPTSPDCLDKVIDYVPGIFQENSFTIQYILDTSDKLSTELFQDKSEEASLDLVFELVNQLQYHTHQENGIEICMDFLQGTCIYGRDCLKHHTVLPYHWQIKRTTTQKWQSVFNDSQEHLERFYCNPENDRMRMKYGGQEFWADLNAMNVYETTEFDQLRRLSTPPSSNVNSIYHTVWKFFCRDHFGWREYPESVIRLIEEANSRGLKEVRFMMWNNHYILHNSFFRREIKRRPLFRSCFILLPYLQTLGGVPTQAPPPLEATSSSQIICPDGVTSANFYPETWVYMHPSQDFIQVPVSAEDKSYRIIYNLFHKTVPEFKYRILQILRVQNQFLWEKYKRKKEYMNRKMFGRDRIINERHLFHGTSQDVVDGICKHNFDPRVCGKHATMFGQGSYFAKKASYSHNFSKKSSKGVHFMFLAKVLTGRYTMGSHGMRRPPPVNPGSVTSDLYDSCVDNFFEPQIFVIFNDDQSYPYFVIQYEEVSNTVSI

PARP11FL = target: T2, PARP11FL (Homo sapiens, UniProt Q9NR21); experiment: ADP-ribosylation plate assay, PARP11FL
T2 sequence (Q9NR21 1-338): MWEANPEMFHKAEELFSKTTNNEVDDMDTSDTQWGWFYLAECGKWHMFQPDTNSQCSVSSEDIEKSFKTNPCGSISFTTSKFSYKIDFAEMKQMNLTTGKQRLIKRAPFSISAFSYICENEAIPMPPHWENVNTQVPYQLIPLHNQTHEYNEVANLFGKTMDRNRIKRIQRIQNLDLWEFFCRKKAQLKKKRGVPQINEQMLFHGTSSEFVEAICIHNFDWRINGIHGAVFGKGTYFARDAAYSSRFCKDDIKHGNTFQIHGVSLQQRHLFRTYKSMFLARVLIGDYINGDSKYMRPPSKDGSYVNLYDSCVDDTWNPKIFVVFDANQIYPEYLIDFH

PARP-10 = target: T3, PARP-10 (Homo sapiens, UniProt Q53GL7); experiment: Auto-MARylation of PARP-10 in GFP-PARP-10 expressing HEK 293 T cells, western blot with ADPr antibody
T3 sequence (Q53GL7 1-1025): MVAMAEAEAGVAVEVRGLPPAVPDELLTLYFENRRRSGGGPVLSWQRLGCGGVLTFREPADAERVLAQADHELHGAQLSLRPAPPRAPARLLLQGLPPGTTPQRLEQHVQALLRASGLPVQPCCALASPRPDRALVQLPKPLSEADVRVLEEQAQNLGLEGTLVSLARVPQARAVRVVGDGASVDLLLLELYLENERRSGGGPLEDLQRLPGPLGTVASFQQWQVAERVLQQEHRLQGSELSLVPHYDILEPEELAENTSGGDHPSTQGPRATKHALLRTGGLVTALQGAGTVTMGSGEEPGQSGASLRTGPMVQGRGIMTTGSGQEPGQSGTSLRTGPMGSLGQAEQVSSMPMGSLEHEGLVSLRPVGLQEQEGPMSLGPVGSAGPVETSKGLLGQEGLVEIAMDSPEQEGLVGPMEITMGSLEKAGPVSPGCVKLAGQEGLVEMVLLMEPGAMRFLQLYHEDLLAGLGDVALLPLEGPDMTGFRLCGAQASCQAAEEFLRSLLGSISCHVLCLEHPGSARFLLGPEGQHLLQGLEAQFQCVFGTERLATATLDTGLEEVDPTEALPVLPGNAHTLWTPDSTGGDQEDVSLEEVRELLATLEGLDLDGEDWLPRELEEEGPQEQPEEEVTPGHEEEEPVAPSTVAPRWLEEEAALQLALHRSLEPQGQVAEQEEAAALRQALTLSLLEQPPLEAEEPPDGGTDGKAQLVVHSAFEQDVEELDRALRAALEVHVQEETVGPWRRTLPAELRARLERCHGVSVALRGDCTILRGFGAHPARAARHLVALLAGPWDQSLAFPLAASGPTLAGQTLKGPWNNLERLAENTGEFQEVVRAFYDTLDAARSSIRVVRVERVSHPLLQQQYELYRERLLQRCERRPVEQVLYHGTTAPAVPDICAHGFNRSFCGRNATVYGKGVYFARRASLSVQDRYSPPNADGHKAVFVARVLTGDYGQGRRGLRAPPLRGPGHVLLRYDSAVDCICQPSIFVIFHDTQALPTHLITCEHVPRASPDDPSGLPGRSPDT

PARP14wwe-cat. = target: T4, PARP14wwe-cat. (Homo sapiens, UniProt Q460N5); experiment: ADP-ribosylation plate assay, PARP14wwe-cat.
T4 sequence (Q460N5 1523-1801 limits assumed): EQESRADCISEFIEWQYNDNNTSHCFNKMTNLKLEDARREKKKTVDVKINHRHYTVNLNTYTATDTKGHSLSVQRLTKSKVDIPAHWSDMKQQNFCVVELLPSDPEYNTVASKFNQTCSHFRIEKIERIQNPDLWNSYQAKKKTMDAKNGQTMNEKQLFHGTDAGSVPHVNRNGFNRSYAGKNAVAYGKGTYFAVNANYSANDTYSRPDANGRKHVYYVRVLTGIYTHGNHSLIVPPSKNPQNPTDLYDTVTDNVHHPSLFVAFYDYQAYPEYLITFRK

In the case of `N#Cc1ccc(N2CCN(C(=O)c3cc(Cc4n[nH]c(=O)c5ccccc45)ccc3F)CC2)nc1` [Phthal01, 6-(4-(2-fluoro-5-((4-oxo-3,4-dihydrophthalazin-1-yl)methyl)benzoyl)piperazin-1-yl)nicotinonitrile], the “inhibition of PARP-7-mediated trans-MARylation of PARP-13.2” value (PARP-7) is reported as “completely inhibits”, the IC50 (PARP11FL) is reported as 0.46 ± 0.02 µM and the EC50 (PARP-10) is reported as about 3 µM. The IC50 (PARP14wwe-cat.) was over 10 µM.
